Data on ten compounds can be found in patent US10894784B2, “Heteroarylbenzimidazole compounds” (BAYER PHARMA AKTIENGESELLSCHAFT, priority 2015, dated 2021).

The target of this experiment is TBK1 (Homo sapiens (Human), UniProt Q9UHD2). Briefly: TBK1 low ATP kinase assay (in vitro assay 1). The conditions noted are these: in vitro assay 1, read-out: TBK1 low ATP kinase assay IC50. The format is biochemical.
TBK1, sequence (Q9UHD2 whole entry): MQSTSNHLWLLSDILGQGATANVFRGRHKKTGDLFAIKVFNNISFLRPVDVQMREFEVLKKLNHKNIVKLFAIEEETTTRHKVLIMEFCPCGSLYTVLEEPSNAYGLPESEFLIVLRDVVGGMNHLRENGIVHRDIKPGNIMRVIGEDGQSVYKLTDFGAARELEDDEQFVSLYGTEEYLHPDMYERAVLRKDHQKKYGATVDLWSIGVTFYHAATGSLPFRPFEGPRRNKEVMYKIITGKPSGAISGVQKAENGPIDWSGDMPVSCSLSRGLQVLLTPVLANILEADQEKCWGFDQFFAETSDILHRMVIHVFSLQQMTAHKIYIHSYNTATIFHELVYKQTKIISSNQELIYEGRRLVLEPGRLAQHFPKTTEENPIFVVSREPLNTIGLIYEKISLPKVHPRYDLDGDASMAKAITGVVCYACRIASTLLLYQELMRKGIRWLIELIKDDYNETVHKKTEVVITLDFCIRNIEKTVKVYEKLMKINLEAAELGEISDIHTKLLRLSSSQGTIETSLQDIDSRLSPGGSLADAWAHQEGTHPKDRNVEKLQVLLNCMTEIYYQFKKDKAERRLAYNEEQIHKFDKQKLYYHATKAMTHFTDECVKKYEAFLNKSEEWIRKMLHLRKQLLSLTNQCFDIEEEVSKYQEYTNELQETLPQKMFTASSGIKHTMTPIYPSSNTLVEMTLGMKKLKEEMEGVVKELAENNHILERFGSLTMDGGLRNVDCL
As to `CC(c1ccnc(Nc2nc3ccc(-c4cnn(C(C)C5CC5)c4)cc3[nH]2)c1)N1CCN(C(=O)OC(C)(C)C)CC1` (single isomer, unassigned) [Example 74.01, tert-butyl 4-[(1R or 1S)-1-{2-[(6-{1-[(1RS)-1-cyclopropylethyl]-1H-pyrazol-4-yl}-1H-benzimidazol-2-yl)amino]pyridin-4-yl}ethyl]piperazine-1-carboxylate], the IC50 came to 120 nM. Consider `Cc1noc(-c2ccc3nc(Nc4cc(CN5CCN(C(=O)CC6CC6)CC5)ccn4)[nH]c3c2)n1` [Example 16.01.03, 2-cyclopropyl-1-{4-[(2-{[6-(3-methyl-1,2,4-oxadiazol-5-yl)-1H-benzimidazol-2-yl]amino}pyridin-4-yl)methyl]piperazin-1-yl}ethanone], for which the IC50 was 115 nM. In the case of `CC(C)(C)OC(=O)N1CCN(Cc2ccnc(Nc3nc4ccc(-c5ccnc(N6CCOCC6)c5)cc4[nH]3)c2)CC1` [Example 134.01, tert-butyl 4-{[2-({6-[2-(morpholin-4-yl)pyridin-4-yl]-1H-benzimidazol-2-yl}amino)pyridin-4-yl]methyl}piperazine-1-carboxylate] it was 57 nM; in that of `CC(C)Nc1cc(-c2ccc3nc(Nc4cc(CN5CCN(C(=O)OC(C)(C)C)CC5)ccn4)[nH]c3c2)ncn1` [Example 154.01, tert-butyl 4-{[2-({6-[6-(propan-2-ylamino)pyrimidin-4-yl]-1H-benzimidazol-2-yl}amino)pyridin-4-yl]methyl}piperazine-1-carboxylate], 4.2 nM; in that of `CN(CC(F)(F)F)c1cc(-c2ccc3nc(Nc4cc(CN5CCN(C(=O)OC(C)(C)C)CC5)ccn4)[nH]c3c2)ncn1` [Example 146.01, tert-butyl 4-({2-[(6-{6-[methyl(2,2,2-trifluoroethyl)amino]pyrimidin-4-yl}-1H-benzimidazol-2-yl)amino]pyridin-4-yl}methyl)piperazine-1-carboxylate], 14 nM. In the case of `CC(c1ccnc(Nc2nc3ccc(-c4cnn(CC5CC5(C)C)c4)cc3[nH]2)c1)N1CCN(C(=O)OC(C)(C)C)CC1` (single isomer, unassigned) [Example 67.01, tert-butyl 4-[(1R or 1S)-1-(2-{[6-(1-{[(1RS)-2,2-dimethylcyclopropyl]methyl}-1H-pyrazol-4-yl)-1H-benzimidazol-2-yl]amino}pyridin-4-yl)ethyl]piperazine-1-carboxylate], the IC50 amounted to 46 nM. As for `Cc1noc(-c2ccc3nc(Nc4cc(CN5CCN(c6ncccn6)CC5)ccn4)[nH]c3c2)n1` [Example 101.05, 6-(3-methyl-1,2,4-oxadiazol-5-yl)-N-(4-{[4-(pyrimidin-2-yl)piperazin-1-yl]methyl}pyridin-2-yl)-1H-benzimidazol-2-amine], the figure is 780 nM; as for `O=C(C1CC1)N1CCN(Cc2ccnc(Nc3nc4ccc(-c5cnc(Cl)nc5)cc4[nH]3)c2)CC1` [Example 45.02.02, {4-[(2-{[6-(2-chloropyrimidin-5-yl)-1H-benzimidazol-2-yl]amino}pyridin-4-yl)methyl]piperazin-1-yl}(cyclopropyl)methanone], 380 nM.

On to `Cc1noc(-c2ccc3nc(Nc4cc(CN5CCN(C(=O)c6cccs6)CC5)ccn4)[nH]c3c2)n1` [Example 101.24, {4-[(2-{[6-(3-methyl-1,2,4-oxadiazol-5-yl)-1H-benzimidazol-2-yl]amino}pyridin-4-yl)methyl]piperazin-1-yl}(thiophen-2-yl)methanone], for which the IC50 came out at 160 nM. As to `Cc1cc(-c2ccc3nc(Nc4cc(C(C)N5CCN(C(=O)C6CCC6)CC5)ccn4)[nH]c3c2)ncn1` (single isomer, unassigned) [Example 30.03.02.B, cyclobutyl{4-[(1S or 1R)-1-(2-{[6-(6-methylpyrimidin-4-yl)-1H-benzimidazol-2-yl]amino}pyridin-4-yl)ethyl]piperazin-1-yl}methanone], the IC50 turned out to be 27.5 nM.

What is called IC50 is the point on the concentration scale where inhibition reaches its midpoint.
